Assay results as given in patent US4888329A, “Antiulcer composition” (Senju Pharmaceutical Co., Ltd., priority 1987, dated 1989).

Legend:
[1] = tested on: indomethacin-induced ulcer; assay: Effect on indomethacin-induced ulcer (Experimental Example 3); type: in vivo, male Donryu rats; conditions: disodium salt; for Length of ulcer: 30 min before indomethacin, mean ± S.E., 7 h after indomethacin, control 30.8 ± 5.97; for % Inhibition: length of ulcer vs control
Protocol: Male Donryu rats weighing 180-200 g were fasted for 24 hours and, then, a suspension of indomethacin in 1% carboxymethylcellulose (30 mg/[…]) was subcutaneously injected. The test drug was orally administered 30 minutes before indomethacin loading. Ten minutes before sacrifice at 7 hours after indomethacin loading, 3 ml/kg 5% Pontamine Sky Blue was intravenously injected. After sacrifice, the stomach was excised and fixed in 1% aqueous formaldehyde. Then, the length (mm) of the gastric ulcer induced was measured.
*5% gum arabic solution, 5 ml/kg
In the above table, each value in the column corresponding to the length of ulcer is the mean ± S.E. and the figure in parentheses denotes the number of cases.

rat stress ulcer [2] = assay: Effect on rat stress ulcer, oral (Experimental Example 1); type: in vivo, male Wistar rats; conditions: disodium salt; for Length of ulcer: mean ± S.E., 5 h water immersion at 23° C., control 25.5 ± 4.29; for % Inhibition: length of ulcer vs control, 5 h water immersion
Protocol: The test drug was administered orally to male Wistar rats weighing 230-270 g and after 30 minutes, the four limbs of each rat were fixed to a board with tying thread. The rats were then immersed in water at 23° C. for 5 hours for stress loading. Ten minutes before water immersion, 3 ml/kg of 5% Pontamine Sky Blue was intravenously injected. After this 5-hour water immersion, the rats were removed from the water and the stomach was excised and fixed in 1% aqueous formaldehyde. Then, the length of the gastric ulcer induced was measured.
*Control: 5% gum arabic solution, 5 ml/kg
In the above table, each value in the column corresponding to length of ulcer is the mean ± S.E. (standard error) and the figure in parentheses denotes the number of the cases.

rat stress ulcer [3] = assay: Effect on rat stress ulcer, intraperitoneal (Experimental Example 2); type: in vivo, male Wistar rats; conditions: 10 mg/5ml/kg intraperitoneal, disodium salt
Protocol: The test drug was aministered intraperitoneally to male Wistar rats weighing about 150 g. After 30 minutes, each rat was fixed to a board with tying thread and immersed in water at 23° C. for 7 hours for stress loading. Ten minutes before water immersion, 3 ml/kg of 5% Pontamine Sky Blue was intravenously administered.
After this 7-hour water immersion, the rats were removed from the water and the stomach was excised and fixed in 1% aqueous formaldehyde. Then, the length (mm) of the gastric ulcer induced was measured.
(§1) *physiological saline, 5 ml/kg
In the above table, each value in the column corresponding to the length of ulcer is the mean ± S.E. and the figure in the parentheses denotes the number of cases.

Toxicity in rat (LD50) = conditions: in vivo
Excerpt: For instance, the toxicity in rat of disodium salt of phosphoric acid diester of L-ascorbic acid and DL-α-tocopherol was observed as follows: […]

rat stress ulcer [4] = assay: Effect on rat stress ulcer, intraperitoneal (Experimental Example 4); type: in vivo, male Wistar rats; conditions: for Length of ulcer: mean ± S.E., 7 h water immersion at 23° C., control 31.7 ± 3.64; for % Inhibition: length of ulcer vs control
Protocol: The test drugs were administered intraperitoneally to male Wistar rats weighing about 130-190 g and after 30 minutes, the four limbs of each rat were fixed to a board with tying thread. The rats were then immersed in water at 23° C. for 7 hours for stress loading. Ten minutes before water immersion, 3 ml/kg of 5% Pontamine Sky Blue was intravenously injected. After 7-hour water immersion, the rats were removed from the water and stomach was excised and fixed in 1% aqueous formaldehyde. Then length of gastric ulcer induced was measured.
as §1
In the above table, each value in the column corresponding to length of ulcer is the mean ± S.E. and the figure in the parentheses denotes the number of cases.

Q: For `Cc1c(C)c2c(c(C)c1OP(=O)(O)OC1=C(O)[C@@H]([C@@H](O)CO)OC1=O)CCC(C)(CCCC(C)CCCC(C)CCCC(C)C)O2` (mixture of isomers) [α-EPC, phosphoric acid diester of L-ascorbic acid and DL-α-tocopherol], which Length of ulcer ([1]; 300 mg/5 ml/kg oral, n=8) is on record?
A: The Length of ulcer was 20.4 ± 3.72 mm.

Q: What about the Length of ulcer ([1]; 1000 mg/5 ml/kg oral, n=9) of the same compound?
A: Its Length of ulcer is 3.5 ± 1.54 mm.

Q: And the “% Inhibition” value ([1]; 300 mg/5 ml/kg oral)?
A: Its value is 33.8%.

Q: And the “% Inhibition” value ([1]; 1000 mg/5 ml/kg oral)?
A: Its value is 88.6%.

Q: And the Length of ulcer (rat stress ulcer [2]; 100 mg/5ml/kg oral, n=5)?
A: The Length of ulcer was 19.4 ± 6.91 mm.

Q: What about the Length of ulcer (rat stress ulcer [2]; 1000 mg/5ml/kg oral, n=6) of the same compound?
A: The Length of ulcer was 10.3 ± 3.51 mm.

Q: What about the “% Inhibition” value (rat stress ulcer [2]; 100 mg/5ml/kg oral) of the same compound?
A: The value was 23.9%.

Q: And the “% Inhibition” value (rat stress ulcer [2]; 1000 mg/5ml/kg oral)?
A: The value was 59.6%.

Q: What about the Length of ulcer (rat stress ulcer [3]; mean ± S.E., n=6, 7 h water immersion at 23° C., control 34.3 ± 4.76) of the same compound?
A: The Length of ulcer was 7.7 ± 6.00 mm.

Q: What about the “% Inhibition” value (rat stress ulcer [3]; length of ulcer vs control, 7 h water immersion) of the same compound?
A: Its value is 77.6%.

Q: And the LD50 (Toxicity in rat (LD50); po, per os)?
A: Its LD50 is > 10000 mg/kg.

Q: What about the LD50 (Toxicity in rat (LD50); sc, subcutaneous administration) of the same compound?
A: The LD50 was 793 mg/kg.

Q: What about the Length of ulcer (rat stress ulcer [4]; 10 mg/5 ml/kg intraperitoneal, disodium salt, n=10) of the same compound?
A: Its Length of ulcer is 8.5 ± 4.06 mm.

Q: What about the Length of ulcer (rat stress ulcer [4]; 30 mg/5 ml/kg intraperitoneal, disodium salt, n=5) of the same compound?
A: The Length of ulcer was 2.8 ± 1.27 mm.

Q: What about the “% Inhibition” value (rat stress ulcer [4]; 10 mg/5 ml/kg intraperitoneal, disodium salt) of the same compound?
A: The value was 73.2%.

Q: What about the “% Inhibition” value (rat stress ulcer [4]; 30 mg/5 ml/kg intraperitoneal, disodium salt) of the same compound?
A: The value was 91.2%.

Q: For `CN/C(=N/CCSCc1nc[nH]c1C)NC#N` [Cimetidine, reference compound], which Length of ulcer (rat stress ulcer [4]; 200 mg/5 ml/kg intraperitoneal, n=5) is on record?
A: The Length of ulcer was 7.4 ± 7.16 mm.

Q: And the “% Inhibition” value (rat stress ulcer [4]; 200 mg/5 ml/kg intraperitoneal)?
A: The value was 76.7%.
